{"source": "patent US6747012B1", "about": "“Crystalline anthracycline antibiotic and process for producing the same” (Mercian Corporation, priority 1997, dated 2004)", "assay_type_in_all_cases": "physicochemical", "key": {"[1]": {"assay": "Residual solvent content by gas chromatography", "conditions": "for Residual solvent content (%): gas chromatography (GC), hydrochloride", "procedure": "Each of the same samples as used in Example 12 was analyzed by gas chromatography (GC) to determine its residual solvent content.\n(Operating Conditions for Analysis by GC)\nDetector: Flame ionization detector.\nColumn temperature: Operated at 40° C. for 5 minutes, and then raised to 80° C. in 5 minutes and held at that temperature.\nVaporization chamber temperature: A constant temperature around 200°.\nFlow rate: A constant flow rate at which the retention time of an internal standard substance (dioxane) is about 6 minutes."}, "[2]": {"assay": "Tests for hygroscopicity (critical relative humidity)", "conditions": "for Critical relative humidity (%): stored at 30° C., relative humidities 32 to 91%, until steady state, calculated from increases or decreases in moisture content, hydrochloride", "procedure": "Samples of the powders (or crystalline powders) obtained in Examples 1-8 were stored at 30° C. and at relative humidities ranging from 32 to 91%. Their moisture contents were measured until a steady state was reached."}, "[3]": {"assay": "Tests for chemical stability (storage at 60° C., HPLC)", "conditions": "for Amount of remaining DM (%): hermetically sealed container, 60° C. for 1 month, HPLC, hydrochloride", "procedure": "Each of the same samples as used in Example 12 was placed in a hermetically sealed container and stored at 60° C. for 1 month. Then, the sample was analyzed by HPLC to determine the DM content in the sample.\n(Conditions for Analysis by HPLC)\nColumn: YMC A-312 (ODS) (manufactured by YMC Co., Ltd.).\nMobile phase: Acetonitrile-water (38:62) (adjusted to pH 2.2 with phosphoric acid).\nFlow velocity: About 1.5 ml/min."}}, "data": [{"smiles": "COc1cccc2c1C(=O)c1c(O)c3c(c(O)c1C2=O)CC(O)(C(C)=O)CC3OC1CC(N)C(O)C(C)O1.Cl", "note": "(stereo not drawn) [Ex.4, DM hydrochloride]", "values": [{"measurement": "Residual solvent content (%)", "setting": "[1]", "result": 0.50, "unit": "%"}, {"measurement": "Critical relative humidity (%)", "setting": "[2]", "result": 28, "unit": "%"}, {"measurement": "Amount of remaining DM (%)", "setting": "[3]", "result": 90.4, "unit": "%"}]}, {"smiles": "COc1cccc2c1C(=O)c1c(O)c3c(c(O)c1C2=O)CC(O)(C(C)=O)CC3OC1CC(N)C(O)C(C)O1.Cl", "note": "(stereo not drawn) [Ex.5, DM hydrochloride]", "values": [{"measurement": "Residual solvent content (%)", "setting": "[1]", "result": 0.19, "unit": "%"}, {"measurement": "Critical relative humidity (%)", "setting": "[2]", "result": 29, "unit": "%"}, {"measurement": "Amount of remaining DM (%)", "setting": "[3]", "result": 97.5, "unit": "%"}]}, {"smiles": "COc1cccc2c1C(=O)c1c(O)c3c(c(O)c1C2=O)CC(O)(C(C)=O)CC3OC1CC(N)C(O)C(C)O1.Cl", "note": "(stereo not drawn) [Ex.3, DM hydrochloride]", "values": [{"measurement": "Residual solvent content (%)", "setting": "[1]", "result": 0.03, "unit": "%"}, {"measurement": "Critical relative humidity (%)", "setting": "[2]", "result": 41, "unit": "%"}, {"measurement": "Amount of remaining DM (%)", "setting": "[3]", "result": 97.1, "unit": "%"}]}, {"smiles": "COc1cccc2c1C(=O)c1c(O)c3c(c(O)c1C2=O)CC(O)(C(C)=O)CC3OC1CC(N)C(O)C(C)O1.Cl", "note": "(stereo not drawn) [Ex.2, DM hydrochloride]", "values": [{"measurement": "residual solvent content (in words)", "setting": "[1]; conclusion from Table 3", "result": "within an acceptable limit"}, {"measurement": "Residual solvent content (%)", "setting": "[1]", "result": 0.40, "unit": "%"}, {"measurement": "hygroscopicity (in words)", "setting": "[2]; conclusion from Table 1", "result": "very low hygroscopicity"}, {"measurement": "Critical relative humidity (%)", "setting": "[2]", "result": 73, "unit": "%"}, {"measurement": "chemical stability (in words)", "setting": "[3]; conclusion from Table 2", "result": "excellent chemical stability"}, {"measurement": "Amount of remaining DM (%)", "setting": "[3]", "result": 100, "unit": "%"}]}, {"smiles": "COc1cccc2c1C(=O)c1c(O)c3c(c(O)c1C2=O)CC(O)(C(C)=O)CC3OC1CC(N)C(O)C(C)O1.Cl", "note": "(stereo not drawn) [Ex.1, DM hydrochloride]", "values": [{"measurement": "Residual solvent content (%)", "setting": "[1]", "result": 0.14, "unit": "%"}, {"measurement": "Critical relative humidity (%)", "setting": "[2]", "result": 34, "unit": "%"}, {"measurement": "Amount of remaining DM (%)", "setting": "[3]", "result": 91.4, "unit": "%"}]}, {"smiles": "COc1cccc2c1C(=O)c1c(O)c3c(c(O)c1C2=O)CC(O)(C(C)=O)CC3OC1CC(N)C(O)C(C)O1.Cl", "note": "(stereo not drawn) [Ex.7, DM hydrochloride]", "values": [{"measurement": "Residual solvent content (%)", "setting": "[1]", "result": 0.05, "unit": "%"}, {"measurement": "Critical relative humidity (%)", "setting": "[2]", "result": 41, "unit": "%"}, {"measurement": "Amount of remaining DM (%)", "setting": "[3]", "result": 97.2, "unit": "%"}]}, {"smiles": "COc1cccc2c1C(=O)c1c(O)c3c(c(O)c1C2=O)CC(O)(C(C)=O)CC3OC1CC(N)C(O)C(C)O1.Cl", "note": "(stereo not drawn) [Ex.8, DM hydrochloride]", "values": [{"measurement": "Residual solvent content (%)", "setting": "[1]", "result": 0.95, "unit": "%"}, {"measurement": "Critical relative humidity (%)", "setting": "[2]", "result": 53, "unit": "%"}, {"measurement": "Amount of remaining DM (%)", "setting": "[3]", "result": 96.5, "unit": "%"}]}, {"smiles": "COc1cccc2c1C(=O)c1c(O)c3c(c(O)c1C2=O)CC(O)(C(C)=O)CC3OC1CC(N)C(O)C(C)O1.Cl", "note": "(stereo not drawn) [Ex.6, DM hydrochloride]", "values": [{"measurement": "Residual solvent content (%)", "setting": "[1]", "result": 0.18, "unit": "%"}, {"measurement": "Critical relative humidity (%)", "setting": "[2]", "result": 29, "unit": "%"}, {"measurement": "Amount of remaining DM (%)", "setting": "[3]", "result": 94.2, "unit": "%"}]}]}
